Several values for one entry are separate records, joined by “and”; a condition that tells them apart may be missing. Equal entries are not always repeated. Entries after “also recorded” stand apart in the source; their conditions may differ. Structures can show the parent of a compound that is named as a salt.
Experiments:
[1] = (^14C)DMF distribution viewed in sagittal section (QWBA); format: in vivo, mice; details: 10 and 60 minutes
[2] = system: Hmox1; test: qRT-PCR transcript fold-change in tissues after DMF or MMF dosing; format: in vivo, C57BL/6 mice; details: MMF IV 30 mpk, Study 2
Protocol: (§1) For RNA preparation, frozen tissues were placed in 2 mL RNAse-free 96-well blocks with 1.5 mL QIAzol Lysis Reagent (QIAgen) and a 3.2 mm stainless steel bead (BioSpec Products, Bartlesville, Okla.). Tissues were disrupted for four cycles of 45 seconds in a Mini-Beadbeater (Biospec Products). RNA was extracted with chloroform and the aqueous phase was mixed with an equal volume of 70% ethanol. Extracted RNA was applied to RNeasy 96 plates and purified by the spin method according to the manufacturer's protocol (RNeasy 96 Universal Tissue Protocol, QIAgen, Hilden Germany).
(§2) Samples were reverse-transcribed into cDNA according to the manufacturer protocols using the High Capacity cDNA Reverse Transcription Kit (Life Technologies, Carlsbad, Calif.) and analyzed by qRT-PCR. Mouse target gene primers and 6-FAM™ dye-labeled TaqMan® MGB™ probes (Life Technologies) were used. Reactions containing 100 ng of cDNA, 900 nM of each primer, and 250 nM TaqMan probes were cycled on a QuantStudio 12 k-flex system (Life Technologies) once for 10 minutes at 95° C., followed by 40 cycles of 95° C. for 10 seconds and 60° C. for 1 minute. All samples were measured in triplicate with Gapdh as a normalizing gene. Taqman primer/probe sets from Life Technologies included: Akr1b8 (Mm00484314_m1); Gapdh (Mm03302249_g1); Gclc (Mm00802655_m1); Hmox1 (Mm00516005_m1); Nqo1 (Mm01253561_m1); and Osgin1 (Mm00660947_m1). Comparative CT method was used to calculate fold changes and samples were normalized relative to time-matched vehicle control.
(§3) At the 10-minute time point, 4 animals from each group were sacrificed, with plasma and tissues (brain, jejunum and kidney) collected to determine MMF exposure. Two hours after dosing, the remaining 4 animals were sacrificed, and plasma and tissues were collected. Tissue samples from the 2-hour time point were divided, with half of each sample used for MMF exposure analysis, and half for RNA extraction and qRT-PCR to evaluate the expression of Nrf2 target genes.
(§4) Ten minutes after dosing, 4 animals from each group were sacrificed, and plasma and tissues (brain, kidney, jejunum and spleen) were collected to quantify MMF exposure levels, as well as whole blood to perform CBC. Two hours post-dose, another 4 animals from each group were sacrificed, and plasma, whole blood, and tissues were collected. Tissue samples from the 2-hour time point were split, with half of each sample used for MMF exposure analysis, and half for RNA extraction/qRT-PCR to evaluate the expression of Nrf2 target genes. Six hours after dosing, the last 4 animals from each group were sacrificed, and whole blood and tissues were collected.
(§5) Table 7 is a summary table of fold changes, relative to time-matched vehicle controls, for indicated genes in indicated tissues. Values indicate the mean fold-change±the standard deviation (n=4). Changes that were significant from vehicle are indicated in bold (one way ANOVA with Tukey's multiple comparison test).
(§6) A CBC with differential panel was performed at 10 minutes post-last dose via facial vein bleeding, and at 2 hours after the last dose, pharmacodynamic Nrf2 transcriptional responses were analyzed in tissues from the same animals. Histopathology was also performed on regions of the tail in a pilot toxicology study.

[3] = system: Gclc; test: as above; format: in vivo, C57BL/6 mice; details: MMF IV 30 mpk, Study 2
Protocol: as §1, §2, §3, §4, §5, §6

[4] = system: Akr1b8; test: as above; format: in vivo, C57BL/6 mice; details: MMF IV 30 mpk, Study 2
Protocol: as §1, §2, §3, §4, §5, §6

[5] = system: blood cell populations; test: Complete blood count (CBC) with differential after IV dosing; format: in vivo, C57BL/6 mice; details: Study 2, single IV dose DMF 30 mg/kg or MMF 27.08 mg/kg
Protocol: Whole blood samples (250 μL) were collected in EDTA tubes at indicated time points after dosing, and were maintained at 4° C. until analysis for CBC with differential at Charles River Laboratories (analyzed within 24-36 hours from time of collection).
Statistical analyses on blood cell fractions were not completed due to the overall variability and low number of replicates for the samples in this pilot study.
as §6

[6] = system: Osgin1; test: qRT-PCR transcript fold-change in tissues after DMF or MMF dosing; format: in vivo, C57BL/6 mice; details: MMF IV 30 mpk, Study 2; for Osgin1 fold change vs vehicle, jejunum / Osgin1 fold change vs vehicle, kidney: 30 mg/kg
Protocol: as §1
as §2, with “control. […]” for “control.”
as §4
as §5, with “test). […]” for “test).”

[7] = system: Nqo1; test: as above; format: in vivo, C57BL/6 mice; details: MMF IV 30 mpk, Study 2; for Nqo1 fold change vs vehicle, jejunum / Nqo1 fold change vs vehicle, kidney: 30 mg/kg
Protocol: as §1
as §2, with “control. […]” for “control.”
as §4
as §5, with “test). […]” for “test).”

[8] = MMF exposure in plasma and tissues after DMF PO/IV or MMF IV (LC-MS/MS); format: in vivo, C57BL/6 mice
Protocol: Aliquots (25 μL) of either plasma or tissue homogenate samples were extracted by protein precipitation with acetonitrile containing 4C13-MMF as the internal standard. For tissue samples, aliquots of homogenization solution (plasma with 12.5 mg/mL of NaF) were added to the tissue samples. The tissue samples were homogenized at 6.5 m/s for 60 seconds on a Fast Prep Tissue Homogenizer prior to protein precipitation. Concentrations of MMF in plasma, brain, jejunum and kidney samples were determined using qualified LC-MS/MS assays in the respective matrices. Data collections and integrations were accomplished using an API 5500 triple quadrupole mass spectrometer with a turbo ion spray interface (AB Sciex, Foster City, Calif.), and Analyst software (version 1.6.1). The peak area ratios of MMF relative to its internal standard were used to construct a standard curve using a quadratic regression with a 1/x^2 weighting. The lower limits of quantitation (LLOQ) were 1 ng/mL for the three tissue assays and 10 ng/mL for the plasma assay, respectively. The performances of the assays were monitored by the precision and accuracy of the standards and quality control samples.
MMF exposure levels were evaluated 10 minutes and 2 hours after dosing, while pharmacodynamic transcriptional responses were analyzed at 2 hours post-dose.
as §3
MMF exposure levels were evaluated 10 minutes and 2 hours after dosing, while transcriptional pharmacodynamic responses were analyzed at 2 and 6 hours post-dose. A complete blood count (CBC) with differential panel was performed at 10 minutes, 2 hours, and 6 hours post-dose.
as §4

[9] = PET/MR imaging of (^11C)DMF tissue distribution after oral or intravenous administration; format: in vivo, CD1 mice
Protocol: To determine the localization and retention of DMF administered by different routes in vivo, mice were administered isotopically labeled DMF either orally or through tail vein injections. […] Acquired images from PET experiments were analyzed using inviCRO software. […] All animals were anaesthetized during image acquisition. […] The imaging data from the three groups of treated animals were quantified according to tissue type using inviCRO image analysis software. Regions of Interest (ROIs) for the brain, heart, liver, kidneys, scapular muscle, and whole body were defined by fitting ellipsoids of fixed volume to the regions. The scapular muscle ROI was hand-drawn and is not representative of all mouse muscle, but is composed of only a small region of its respective ROI.

Compound: COC(=O)/[14CH]=[14CH]/C(=O)OC [(^14C)DMF, [2,3-^14C] DMF]
- (^14C) signal in sagittal section ([1]; IV 0.5 mg/kg): displayed signal in the kidneys and brain
- (^14C) signal in sagittal section ([1]; PO 0.5 mg/kg): had less signal in the brain

Compound: COC(=O)/C=C/C(=O)O [MMF, monomethyl fumarate]
- Hmox1 fold change vs vehicle, brain ([2]; 2 hr): 1.0 ± 0.1 fold
- Hmox1 fold change vs vehicle, jejunum ([2]; 2 hr): 0.9 ± 0.1 fold
- Hmox1 fold change vs vehicle, kidney ([2]; 2 hr): 1.6 ± 0.3 fold
- Hmox1 fold change vs vehicle, brain ([2]; 6 hr): 1.0 ± 0.0 fold
- Hmox1 fold change vs vehicle, jejunum ([2]; 6 hr): 1.1 ± 0.1 fold
- Hmox1 fold change vs vehicle, kidney ([2]; 6 hr): 3.3 ± 0.8 fold
- Gclc fold change vs vehicle, brain ([3]; 2 hr): 1.0 ± 0.0 fold
- Gclc fold change vs vehicle, jejunum ([3]; 2 hr): 1.2 ± 0.3 fold
- Gclc fold change vs vehicle, kidney ([3]; 2 hr, 30 mg/kg): 1.9±0.7 fold
- Gclc fold change vs vehicle, brain ([3]; 6 hr): 1.0 ± 0.1 fold
- Gclc fold change vs vehicle, jejunum ([3]; 6 hr, 30 mg/kg): 1.5±0.1 fold
- Gclc fold change vs vehicle, kidney ([3]; 6 hr, 30 mg/kg): 2.3±0.6 fold
- Akr1b8 fold change vs vehicle, brain ([4]; 2 hr): 1.0 ± 0.2 fold
- Akr1b8 fold change vs vehicle, kidney ([4]; 2 hr): 1.2 ± 0.1 fold
- Akr1b8 fold change vs vehicle, jejunum ([4]; 2 hr, 30 mg/kg): 2.4±0.7 fold
- Akr1b8 fold change vs vehicle, brain ([4]; 6 hr): 1.0 ± 0.1 fold
- Akr1b8 fold change vs vehicle, jejunum ([4]; 6 hr): 2.9 ± 1.2 fold
- Akr1b8 fold change vs vehicle, kidney ([4]; 6 hr, 30 mg/kg): 1.5±0.1 fold
- Reduction in white blood cell counts (neutrophils, lymphocytes, monocytes, eosinophils, basophils) ([5]; 2-hour time point): did not specifically coincide with DMF or MMF treatment
- Effect on red blood cells, hemoglobin, hematocrit, mean corpuscular volume, platelets ([5]; 10 minutes, 2 and 6 hours): no effect on red blood cells, hemoglobin, hematocrit, mean corpuscular volume, or platelets
- Osgin1 fold change vs vehicle, brain ([6]; 2 hr): 1.9 ± 0.3 fold
- Osgin1 fold change vs vehicle, jejunum ([6]; 2 hr): 1.6±0.1 fold
- Osgin1 fold change vs vehicle, kidney ([6]; 2 hr): 2.4±0.8 fold
- Osgin1 fold change vs vehicle, brain ([6]; 6 hr): 1.1 ± 0.1 fold
- Osgin1 fold change vs vehicle, jejunum ([6]; 6 hr): 1.2±0.1 fold
- Osgin1 fold change vs vehicle, kidney ([6]; 6 hr): 1.4±0.0 fold
- Nqo1 fold change vs vehicle, brain ([7]; 2 hr): 1.1 ± 0.1 fold
- Nqo1 fold change vs vehicle, jejunum ([7]; 2 hr): 1.5±0.2 fold
- Nqo1 fold change vs vehicle, kidney ([7]; 2 hr): 1.6±0.4 fold
- Nqo1 fold change vs vehicle, brain ([7]; 6 hr): 1.2 ± 0.1 fold
- Nqo1 fold change vs vehicle, jejunum ([7]; 6 hr): 1.7±0.1 fold
- Nqo1 fold change vs vehicle, kidney ([7]; 6 hr): 2.3±0.3 fold
- Kp at 10 min ([8]; C57BL/6, mouse, brain, Study 2, MMF IV 27.08 mg/kg, 10 minutes, read-out: Brain to plasma MMF ratio (tissue [MMF]/plasma [MMF]*100)): 7.2 ± 3
- concentration at 10 min ([8]; C57BL/6, mouse, plasma, Study 2, MMF IV 27.08 mg/kg, 10 minutes, n=4, read-out: MMF level in plasma): 13000 ng/mL and 100 µM
- Difference in brain MMF levels, animals receiving MMF compared to DMF via IV dosing ([8]; Study 2, 10 minutes, not significant): 31%
- MMF level in plasma or any tissues ([8]; Study 2, 2 hours, DMF 30 mg/kg or MMF 27.08 mg/kg IV): no detectable MMF in plasma or in any tissues
- MMF levels in kidney, jejunum and spleen, DMF versus MMF ([8]; Study 2, IV, 10 minutes): no significant differences were noted in MMF levels
- Tissue penetration ratios in kidney, jejunum or spleen, DMF versus MMF ([8]; Study 2, IV, 10 minutes): no significant differences in tissue penetration ratios

Compound: (^11C) dimethyl fumarate [(^11C)DMF]
- PET signal distribution in tissues ([9]; IV 0.5 mg/kg, imaged up to 90 minutes, 0.5 mg/kg): positive signal throughout various tissues of the body including the brain and heart; also recorded: signal was higher in most tissues; also recorded: localized in numerous tissues, including the brain, as early as 30 seconds after administration
- PET signal in brain regions ([9]; IV 0.5 mg/kg, 0.5 mg/kg): high levels of signal in all regions of the brain throughout the observation period; also recorded: all emitted a strong signal as compared to olfactory regions
- PET signal in brain regions ([9]; PO 0.5 mg/kg or 200 mg/kg): almost no signal was detected in any region; also recorded: significantly lower levels of signal throughout the brain
